Experimental data: publication PMC7031696 (Cell chemical biology, 2019)
Where two headings read alike, the source gives them in different places. Each block holds one compound with its values, some of them ahead of it.

Assays:
[1] = test system: Plasmodium falciparum 3D7-A10 parasites; experiment: Stage specificity assay (8-h exposure of synchronized stages, IC50^8h); type: cell-based; details: for IC50: Plasmodium falciparum
[2] = test system: asynchronous 3D7-A10 parasite cultures; experiment: Standard 72-h exposure asexual blood stage susceptibility assay (IC50^72h); type: cell-based, Plasmodium falciparum; details: Plasmodium falciparum, 3D7, 72 h, read-out: Overall (72hr assay) Mean IC50 (IC50^72h)
[3] = test system: 3D7-MR4 trophozoite parasite-infected RBCs; details: 10 × IC50^72h; ref Allman et al., 2016; cited from earlier work
[4] = test system: 3D7-MR4 trophozoite parasite-infected RBCs; experiment: Metabolomic profiling (hydrophilic metabolite changes, UHPLC-MS); type: cell-based, Plasmodium falciparum

SMILES: CCN(CC)CCCC(C)Nc1ccnc2cc(Cl)ccc12 (stereo not drawn) [Chloroquine, reference compound]
- IC50 ([1]; 3D7, read-out: Early rings Mean IC50 (IC50^8h)): 17.8 nM
- IC50 ([1]; 3D7, read-out: Early trophozoites Mean IC50 (IC50^8h)): 17.4 nM
- IC50 ([1]; 3D7, read-out: IC50^8h values): < 300 nM
- IC50 ([1]; 3D7, read-out: Late rings Mean IC50 (IC50^8h)): 18.6 nM
- IC50 ([1]; 3D7, read-out: Late trophozoites Mean IC50 (IC50^8h)): 30.1 nM
- IC50 ([1]; 3D7, read-out: Schizonts Mean IC50 (IC50^8h)): 60.3 nM
- IC50 [2]: 5.9 nM
- increased levels of dAMP, dUTP, cytidine, xanthosine, and N-acetyl-lysine [3]: > 2 fold
- peptide levels (hemoglobin catabolism signature) [3]: more modest decrease in peptide levels

- IC50 [2]: 7.2 nM
SMILES: CC(C)C[C@@H](/C=C/S(C)(=O)=O)NC(=O)[C@H](CC(C)C)NC(=O)[C@H](Cc1c[nH]c2ccccc12)NC(=O)CN1CCOCC1 [WLL-vs, reference compound]
- IC50 ([1]; 3D7, read-out: Early rings Mean IC50 (IC50^8h), 8-h exposure 0–8 hr, 3D7-A10, survival at 60 h): 23.7 nM
- IC50 ([1]; 3D7, read-out: Early trophozoites Mean IC50 (IC50^8h), 8-h exposure 16–24 hr, 3D7-A10, survival at 60 h): 57.6 nM
- IC50 ([1]; 3D7, read-out: Late rings Mean IC50 (IC50^8h), 8-h exposure 8–16 hr, 3D7-A10, survival at 60 h): 29.4 nM
- IC50 ([1]; 3D7, read-out: Late trophozoites Mean IC50 (IC50^8h), 8-h exposure 24–32 hr, 3D7-A10, survival at 60 h): 47.1 nM
- IC50 ([1]; 3D7, read-out: Schizonts Mean IC50 (IC50^8h), 8-h exposure 32–40 hr, 3D7-A10, survival at 60 h): 50.1 nM
- Stage of peak activity (Figure 6) ([1]; period when the parasite was most susceptible (lowest IC50^8h)): ring stages
- changes within the set of metabolites detected (low fold change group) ([4]; 10 × IC50^72h, 2.5 hr, trophozoites): did not induce major changes
- Log2(fold changes) 3-phosphoglycerate ([4]; metabolite 3-phosphoglycerate, log2 fold change): -0.1339
- Log2(fold changes) 4-Pyridoxic acid ([4]; metabolite 4-Pyridoxic acid, log2 fold change): 0.0000
- Log2(fold changes) 4-aminobutyrate ([4]; metabolite 4-aminobutyrate, log2 fold change): -0.0215
- Log2(fold changes) 4-phosphopantetheine ([4]; metabolite 4-phosphopantetheine, log2 fold change): 0.0000
- Log2(fold changes) 4-phosphopantothenate ([4]; metabolite 4-phosphopantothenate, log2 fold change): -0.0913
- Log2(fold changes) 5-aminopentanoic acid ([4]; metabolite 5-aminopentanoic acid, log2 fold change): 0.0000
- Log2(fold changes) 5-methyl-THF ([4]; metabolite 5-methyl-THF, log2 fold change): 0.0000
- Log2(fold changes) 5-phosphoribosyl-1-pyrophosphate ([4]; metabolite 5-phosphoribosyl-1-pyrophosphate, log2 fold change): -0.1277
- Log2(fold changes) 6-phospho-D-gluconate ([4]; metabolite 6-phospho-D-gluconate, log2 fold change): -0.0373
- Log2(fold change) HVDD ([4]; metabolite HVDD): -0.5028
- Log2(fold change) Hydroxyisocaproic acid ([4]; metabolite Hydroxyisocaproic acid): 0.0000
- Log2(fold change) IDP ([4]; metabolite IDP): 0.0000
- Log2(fold change) IMP ([4]; metabolite IMP): 0.0400
- Log2(fold change) Inositol ([4]; metabolite Inositol): 0.0000
- Log2(fold change) Isopentyl-PP ([4]; metabolite Isopentyl-PP): 0.0000
- Log2(fold change) L-arginino-succinate ([4]; metabolite L-arginino-succinate): 0.0000
- Log2(fold change) LD ([4]; metabolite LD): 0.0000
- Log2(fold change) Myristoyl/tetradecanoyl-CoA ([4]; metabolite Myristoyl/tetradecanoyl-CoA): 0.0000
- Log2(fold change) N-Acetyl-L-alanine ([4]; metabolite N-Acetyl-L-alanine): -0.0632
- Log2(fold change) N-acetyl-L-ornithine ([4]; metabolite N-acetyl-L-ornithine): -0.0046
- Log2(fold change) N-acetyl-glucosamine-1/6-phosphate ([4]; metabolite N-acetyl-glucosamine-1/6-phosphate): -0.0854
- Log2(fold change) N-acetyl-glutamate ([4]; metabolite N-acetyl-glutamate): 0.1610
- Log2(fold change) N-acetyl-glutamine ([4]; metabolite N-acetyl-glutamine): 0.0000
- Log2(fold change) N-carbamoyl-L-aspartate ([4]; metabolite N-carbamoyl-L-aspartate): 0.1147
- Log2(fold change) NAD+ ([4]; metabolite NAD+): 0.0000
- Log2(fold change) NADH ([4]; metabolite NADH): 0.3385
- Log2(fold change) NADP+ ([4]; metabolite NADP+): -0.1225
- Log2(fold change) NADPH ([4]; metabolite NADPH): 0.0976
- Log2(fold change) O-acetyl-L-serine ([4]; metabolite O-acetyl-L-serine): 0.0000
- Log2(fold change) Octoluse 8/1P ([4]; metabolite Octoluse 8/1P): 0.0000
- Log2(fold change) Octoluse Bisphosphate ([4]; metabolite Octoluse Bisphosphate): -0.1506
- Log2(fold change) PD ([4]; metabolite PD): -0.2643
- Log2(fold change) PE ([4]; metabolite PE): -0.3236
- Log2(fold change) PEE ([4]; metabolite PEE): -0.1344
- Log2(fold change) PEEK ([4]; metabolite PEEK): 0.0000
- Log2(fold change) PVNF ([4]; metabolite PVNF): -0.5296
- Log2(fold change) Pyroglutamic acid ([4]; metabolite Pyroglutamic acid): 0.0000
- Log2(fold change) Pyrophosphate ([4]; metabolite Pyrophosphate): 0.0000
- Log2(fold change) Ribose-5-phosphate ([4]; metabolite Ribose-5-phosphate): -0.2996
- Log2(fold change) S-adenosyl-L-homocysteine ([4]; metabolite S-adenosyl-L-homocysteine): -0.2761
- Log2(fold change) S-adenosyl-L-methioninamine ([4]; metabolite S-adenosyl-L-methioninamine): 0.0000
- Log2(fold change) S-adenosyl-L-methionine ([4]; metabolite S-adenosyl-L-methionine): 0.0000
- Log2(fold change) S-methyl-5'-thioadenosine ([4]; metabolite S-methyl-5'-thioadenosine): 0.0000
- Log2(fold change) SD ([4]; metabolite SD): -0.1301
- Log2(fold change) SDL ([4]; metabolite SDL): 0.0000
- Log2(fold change) SID ([4]; metabolite SID): -0.3691
- Log2(fold change) Sedoheptulose bisphosphate ([4]; metabolite Sedoheptulose bisphosphate): -0.1909
- Log2(fold change) Thiamine pyrophosphate ([4]; metabolite Thiamine pyrophosphate): 0.0000
- Log2(fold changes) UDP-D-glucose ([4]; metabolite UDP-D-glucose, log2 fold change): -0.0066
- Log2(fold changes) UDP-D-glucuronate ([4]; metabolite UDP-D-glucuronate, log2 fold change): -0.1270
- Log2(fold changes) UDP-N-acetyl-glucosamine ([4]; metabolite UDP-N-acetyl-glucosamine, log2 fold change): -0.0647
- Log2(fold changes) UDP ([4]; metabolite UDP, log2 fold change): -0.3774
- Log2(fold changes) UMP ([4]; metabolite UMP, log2 fold change): 0.1341
- Log2(fold changes) UTP ([4]; metabolite UTP, log2 fold change): -0.1532
- Log2(fold change) hydroxyphenylpyruvate ([4]; metabolite hydroxyphenylpyruvate): 0.0000
- Log2(fold change) hydroxyproline/Aminolevulinate ([4]; metabolite hydroxyproline/Aminolevulinate): -0.0172
- Log2(fold change) hypoxanthine ([4]; metabolite hypoxanthine): 0.1957
- Log2(fold change) indole ([4]; metabolite indole): 0.0000
- Log2(fold change) inosine ([4]; metabolite inosine): 0.0926
- Log2(fold change) isoleucine ([4]; metabolite isoleucine): 0.0638
- Log2(fold change) lactate ([4]; metabolite lactate): -0.1762
- Log2(fold change) leucine ([4]; metabolite leucine): -0.0424
- Log2(fold change) lysine ([4]; metabolite lysine): 0.0000
- Log2(fold change) malate ([4]; metabolite malate): -0.1070
- Log2(fold change) maleic acid ([4]; metabolite maleic acid): -0.1330
- Log2(fold change) methionine ([4]; metabolite methionine): 0.1427
- Log2(fold change) myo-inositol ([4]; metabolite myo-inositol): 0.0000
- Log2(fold change) nicotinamide mononucleotide ([4]; metabolite nicotinamide mononucleotide): 0.0000
- Log2(fold change) nicotinate ([4]; metabolite nicotinate): 0.0441
- Log2(fold change) ornithine ([4]; metabolite ornithine): 0.0000
- Log2(fold change) orotate ([4]; metabolite orotate): -0.0939
- Log2(fold change) orotidine-5'-phosphate ([4]; metabolite orotidine-5'-phosphate): -0.0654
- Log2(fold change) oxaloacetate ([4]; metabolite oxaloacetate): 0.0000
- Log2(fold change) p-aminobenzoate ([4]; metabolite p-aminobenzoate): 0.0000
- Log2(fold change) p-hydroxybenzoate ([4]; metabolite p-hydroxybenzoate): 0.0000
- Log2(fold change) pantothenate ([4]; metabolite pantothenate): -0.2167
- Log2(fold change) phenylalanine ([4]; metabolite phenylalanine): 0.0156
- Log2(fold change) phenylpyruvate ([4]; metabolite phenylpyruvate): 0.0000
- Log2(fold change) phosphoenolpyruvate ([4]; metabolite phosphoenolpyruvate): -0.0337
- Log2(fold change) prephenate ([4]; metabolite prephenate): 0.0000
- Log2(fold change) proline ([4]; metabolite proline): -0.1122
- Log2(fold change) pyridoxine ([4]; metabolite pyridoxine): 0.0678
- Log2(fold change) pyruvate ([4]; metabolite pyruvate): -0.3415
- Log2(fold change) riboflavin ([4]; metabolite riboflavin): 0.0000
- Log2(fold change) ribose ([4]; metabolite ribose): 0.1290
- Log2(fold change) ribose-phosphate ([4]; metabolite ribose-phosphate): -0.4836
- Log2(fold change) ribulose-5-phosphate ([4]; metabolite ribulose-5-phosphate): -0.5090
- Log2(fold change) serine ([4]; metabolite serine): -0.0671
- Log2(fold change) sn-glycerol-3-phosphate ([4]; metabolite sn-glycerol-3-phosphate): -0.0482
- Log2(fold change) succinate/Methylmalonic acid ([4]; metabolite succinate/Methylmalonic acid): 0.1064
- Log2(fold change) succinyl-CoA/methylmalonyl-CoA ([4]; metabolite succinyl-CoA/methylmalonyl-CoA): -0.0054
- Log2(fold change) taurine ([4]; metabolite taurine): 0.0000
- Log2(fold change) thiamine ([4]; metabolite thiamine): 0.0000
- Log2(fold change) threonine/homoserine ([4]; metabolite threonine/homoserine): -0.1507
- Log2(fold change) thymidine ([4]; metabolite thymidine): 0.0000
- Log2(fold changes) thymine ([4]; metabolite thymine, log2 fold change): 0.0000
- Log2(fold changes) trehalose-6-Phosphate ([4]; metabolite trehalose-6-Phosphate, log2 fold change): 0.0000
- Log2(fold changes) tryptophan ([4]; metabolite tryptophan, log2 fold change): -0.0680
- Log2(fold changes) tyrosine ([4]; metabolite tyrosine, log2 fold change): -0.0190
- Log2(fold changes) uridine ([4]; metabolite uridine, log2 fold change): 0.0000
